Results: patent publication US20190290656A1, “PT(IV) PRODRUGS” (YISSUM RESEARCH DEVELOPMENT COMPANY OF THE HEBREW …, priority 2015, published 2019)

Legend:
[1] = system: Histone deacetylase (HDAC); assay: Histone deacetylase assay in 2008 cells; assay type: cell-based, human; conditions: 24 h, IC50 concentrations
Method: (§1) Histone deacetylase assay. Histone deacetylase activity was determined using Fluor-de-Lys® HDAC fluorometric activity assay kit (Enzo Life Sciences International, Inc., Plymount Meeting, Pa., U.S.A.). 2008 and PSN1 cells (5.10^4 seeded in 96-well microplates) were treated for 24 h with tested complexes, and then processed as reported by the manufacturer's instructions. Fluorescence was measured using a Fluoroskan Ascent FL (Labsystem, Finland) plate reader, with excitation at 360 nm and emission at 460 nm.
(§2) Thus, we measured both the levels of DNA platination and the ability of these pro-drugs to inhibit HDAC activity in cancer cells.

BxPC3 spheroids = assay: 3D spheroid APH assay, BxPC3; assay type: cell-based, human; conditions: 72 h, APH test
Excerpt: (§3) Acid phosphatase (APH) assay. A modified APH assay, which is based on quantification of cytosolic acid phosphatase activity, was used for determining cell viability in spheroids. […] Triplicate cultures were established for each treatment. […] Evaluation was based on means from at least four independent experiments.
(§4) In order to improve the predictive capacity of the in vitro assays, we tested the activity in three three-dimensional (3D) cell cultures; human colon cancer cells, HCT-15, and human pancreatic cancer cells, KRAS wild type BxPC3 cells KRAS mutated PSN-1 cells. The cancer spheroids were treated with 3a and 3b for 72 h and the cell viability was assessed by means of the APH assay (Table 6). For comparison purposes, the cytotoxicities of CDDP and OXP were evaluated under the same experimental conditions.

H157 cells = assay: MTT cytotoxicity assay, H157; assay type: cell-based, human; conditions: H157, 72 h
Method: (§5) MTT assay. […] Triplicate cultures were established for each treatment.
(§6) The two dimers, 3a and 3b, as well as compounds 1a and 2a were screened against six human cancer cell lines representative of lung (H157), colon (HCT-15), cervical (A431), ovarian (2008) and pancreatic (PSN1) cancers, along with melanoma (A375). Cytotoxicity was evaluated by means of the MTT test after 72 h of treatment and the in vitro antitumor potential of newly synthesized derivatives was compared to that of the reference metallo-drugs CDDP and OXP.

PSN-1 cells = assay: Glycolysis (Mito-ID O2 sensor), PSN-1; assay type: cell-based, human; conditions: IC50 concentrations, 24 h
Method: (§7) Glycolysis. The cellular glycolytic activity was assessed using the Mito-ID® O2 Extracellular Sensor Kit according to the manufacturer's instructions (Enzo Life Sciences, Farmingdale, N.Y.). Briefly, PSN-1 cells (15·10^3 per well) were seeded in 96-well plates. After 24 h, cells were treated with Mito-ID® O2 Sensor Probe Solution containing the tested compounds at the appropriate concentration. Fluorescence was estimated using a plate reader (Fluoroskan Ascent FL, Labsystem, Finland) at 350 nm (excitation) and 610 nm (emission).
(§8) Based on the above findings, we investigated the effects determined by derivatives 3a and 3b on 2008 and PSN-1 cancer cell aerobic glycolysis and mitochondria function.
(§9) However, these effects were magnified in PSN-1 cells, having reduction of cellular glycolytic activity of about 36 and 20% for 3a and 3b, respectively. […] This latter result could be explained tacking into consideration that the reference compound [Pt(DACH)(56Phen)] itself, that is also released upon reduction of 3a and 3b, is effective in hampering cellular glycolysis in both tested cancer cell lines. The difference between 3a and 3b might be attributed to the added effect of DCA.

A375 cells = assay: MTT cytotoxicity assay, A375; assay type: cell-based, human; conditions: A375, 72 h, MTT (Table 5); read-out: IC50 (μM) ± S.D.
Method: (§10) Cisplatin (CDDP) and oxaliplatin (OXP) were dissolved just before the experiment in a 0.9% NaCl solution. […]
(§11) Cancer Res. 1988, 48, 589-601]. […] Triplicate cultures were established for each treatment.
as §5, §6

2008 cells [2] = assay: MTT cytotoxicity assay, 2008; assay type: cell-based, human; conditions: 2008, 72 h, MTT
Method: as §5, §6

[3] = system: Histone deacetylase (HDAC); assay: Histone deacetylase assay in PSN-1 cells; assay type: cell-based, human; conditions: 24 h, IC50 concentrations
Method: as §1, §2

2008 cells [4] = assay: Glycolysis (Mito-ID O2 sensor), 2008; assay type: cell-based, human; conditions: IC50 concentrations, 24 h
Method: as §7, §8, §9

PSN1 cells = assay: MTT cytotoxicity assay, PSN1; assay type: cell-based, human; conditions: PSN1, 72 h, MTT
Method: as §5, §6

HCT-15 spheroids = assay: 3D spheroid APH assay, HCT-15; assay type: cell-based, human; conditions: HCT-15 spheroids, 72 h, APH test
Excerpt: as §3, §4

[5] = system: human embryonic kidney HEK293 cells; assay: MTT cytotoxicity against non-tumor cells; assay type: cell-based
Method: as §5
The cytotoxic activity of derivatives 3a and 3b was also evaluated against non-tumor cells, namely human embryonic kidney HEK293 cells (Table 7). Both compounds 3a and 3b were more cytotoxic than CDDP.

PSN-1 spheroids = assay: 3D spheroid APH assay, PSN-1; assay type: cell-based, human; conditions: PSN-1 spheroids, 72 h, APH test
Excerpt: as §3, §4

A431 cells = assay: MTT cytotoxicity assay, A431; assay type: cell-based, human; conditions: A431, 72 h
Method: as §5, §6

HCT-15 cells = assay: MTT cytotoxicity assay, HCT-15; assay type: cell-based, human; conditions: HCT-15, 72 h, MTT (Table 5); read-out: IC50 (μM) ± S.D.
Method: as §10, §11, §5, §6

## c,c,t,t,c,c-[(DACH)(56Phen)(OAc)Pt(μ-OOC—(CH2)2—CONH(CH2)3COO)-Pt(OAc)(NH3)2(Cl2)](TFA)2 [Compound 3b]
[1]
  HDAC activity hampered: not effective in modifying HDAC activity
BxPC3 spheroids
  IC50: 81.3 ± 6.25 µM
H157 cells
  IC50: 8.25 ± 1.21 µM
PSN-1 cells
  reduction of cellular glycolytic activity: ~20%
A375 cells
  IC50: 1.05 ± 0.18 µM
2008 cells [2]
  IC50: 6.04 µM
[3]
  HDAC activity hampered: not effective in modifying HDAC activity
2008 cells [4]
  reduction of glycolysis processes compared with untreated control cells: ~14%
PSN1 cells
  IC50: 6.12 µM
HCT-15 spheroids
  IC50: 75.9 ± 4.52 µM
[5]; HEK293 non-tumor cells, 72 h, MTT
  IC50: 7.8 ± 3.36 µM
[5]; ratio between average IC50 of non-tumor cells and IC50 of malignant cells
  SI (selectivity index): 1.7
PSN-1 spheroids
  IC50: 60.5 ± 5.76 µM
A431 cells
  IC50: 5.25 ± 0.41 µM
HCT-15 cells
  IC50: 1.89 ± 0.69 µM
